Experimental data taken from patent US20120295907A1, “INSECTICIDAL COMPOUNDS” (SYNGENTA CROP PROTECTION, LLC, priority 2009, published 2012).

Legend:
Type in all cases: in vivo
Diabrotica balteata = Diabrotica balteata (Corn Root Worm) artificial diet MTP test; conditions: 120 h, 200 ppm (concentration in well 18 ppm), L2 larvae, 5 days, larval mortality, growth regulation
Heliothis virescens = Heliothis virescens (Tobacco Budworm) egg test on artificial diet; conditions: 96 h, 200 ppm (concentration in well 18 ppm), eggs 0-24 h old on artificial diet, 4 days, egg mortality, larval mortality, growth regulation
Spodoptera littoralis = Spodoptera littoralis (Egyptian Cotton Leafworm) cotton leaf disc spray test; conditions: foliar, 72 h, 200 ppm spray on cotton leaf discs, L1 larvae, mortality, feeding behavior, growth regulation 3 DAT
Plutella xylostella = Plutella xylostella (Diamond Back Moth) artificial diet MTP test; conditions: 144 h, 200 ppm (concentration in well 18 ppm), L2 larvae, 6 days, larval mortality, growth regulation

Measured: pest or weed control at 200 ppm

CCc1cc(C(F)(C(F)(F)F)C(F)(F)C(F)(F)F)cc(C)c1NC(=O)c1cccc(NC(=O)c2ccc(F)cc2)c1OC (centres unmarked) [A1, N-[2-ethyl-4-(1,2,2,3,3,3-hexafluoro-1-trifluoromethylpropyl)-6-methylphenyl]-3-(4-fluorobenzoylamino)-2-methoxybenzamide]
≥ 80%: all assays above

COc1c(NC(=O)c2cccc(F)c2F)cccc1C(=O)Nc1c(Cl)cc(C(F)(C(F)(F)F)C(F)(F)C(F)(F)F)cc1Br (centres unmarked) [B22]
≥ 80%: all assays above

COc1c(NC(=O)c2cnccn2)cccc1C(=O)Nc1c(Cl)cc(C(F)(C(F)(F)F)C(F)(F)C(F)(F)F)cc1Br (centres unmarked) [B56]
≥ 80%: all assays above

COc1c(NC(=O)c2cc([N+](=O)[O-])ccc2Cl)cccc1C(=O)Nc1c(Cl)cc(C(F)(C(F)(F)F)C(F)(F)C(F)(F)F)cc1Br (centres unmarked) [B62]
≥ 80%: all assays above

COc1c(NC(=O)c2cc(C)ccc2Cl)cccc1C(=O)Nc1c(Cl)cc(C(F)(C(F)(F)F)C(F)(F)C(F)(F)F)cc1Br (centres unmarked) [B72]
≥ 80%: all assays above

COc1c(NC(=O)c2cc(Br)ccc2Cl)cccc1C(=O)Nc1c(Cl)cc(C(F)(C(F)(F)F)C(F)(F)C(F)(F)F)cc1Br (centres unmarked) [B83]
≥ 80%: all assays above

COc1c(NC(=O)c2ccc(C)c(Br)c2)cccc1C(=O)Nc1c(Cl)cc(C(F)(C(F)(F)F)C(F)(F)C(F)(F)F)cc1Br (centres unmarked) [B84]
≥ 80%: all assays above

COc1c(NC(=O)c2cccc([N+](=O)[O-])c2Br)cccc1C(=O)Nc1c(Cl)cc(C(F)(C(F)(F)F)C(F)(F)C(F)(F)F)cc1Br (centres unmarked) [B85]
≥ 80%: all assays above

COc1c(NC(=O)c2cc([N+](=O)[O-])cc([N+](=O)[O-])c2C)cccc1C(=O)Nc1c(Cl)cc(C(F)(C(F)(F)F)C(F)(F)C(F)(F)F)cc1Br (centres unmarked) [B86]
≥ 80%: all assays above

COc1c(NC(=O)c2cc(C)n(C)n2)cccc1C(=O)Nc1c(Cl)cc(C(F)(C(F)(F)F)C(F)(F)C(F)(F)F)cc1Br (centres unmarked) [B100]
≥ 80%: all assays above

COc1c(NC(=O)c2ccc(SC)cc2[N+](=O)[O-])cccc1C(=O)Nc1c(Cl)cc(C(F)(C(F)(F)F)C(F)(F)C(F)(F)F)cc1Br (centres unmarked) [B116]
≥ 80%: all assays above

COc1c(NC(=O)c2cn(C)nc2C#N)cccc1C(=O)Nc1c(Cl)cc(C(F)(C(F)(F)F)C(F)(F)C(F)(F)F)cc1Br (centres unmarked) [B117]
≥ 80%: all assays above

COc1c(NC(=O)c2ccc(C(F)(F)F)cc2SC)cccc1C(=O)Nc1c(Cl)cc(C(F)(C(F)(F)F)C(F)(F)C(F)(F)F)cc1Br (centres unmarked) [B125]
≥ 80%: Diabrotica balteata | Heliothis virescens | Plutella xylostella

COc1c(NC(=O)c2cnccc2C(F)(F)F)cccc1C(=O)Nc1c(Cl)cc(C(F)(C(F)(F)F)C(F)(F)C(F)(F)F)cc1Br (centres unmarked) [B126]
≥ 80%: all assays above

COc1c(NC(=O)c2cc([N+](=O)[O-])c(F)cc2Cl)cccc1C(=O)Nc1c(Cl)cc(C(F)(C(F)(F)F)C(F)(F)C(F)(F)F)cc1Br (centres unmarked) [B130]
≥ 80%: all assays above

COc1c(NC(=O)c2cn(C)nc2C(F)F)cccc1C(=O)Nc1c(Cl)cc(C(F)(C(F)(F)F)C(F)(F)C(F)(F)F)cc1Br (centres unmarked) [B131]
≥ 80%: all assays above

COc1c(NC(=O)c2cc(C)oc2C(F)(F)F)cccc1C(=O)Nc1c(Cl)cc(C(F)(C(F)(F)F)C(F)(F)C(F)(F)F)cc1Br (centres unmarked) [B144]
≥ 80%: all assays above

COc1cccc(F)c1C(=O)Nc1cccc(C(=O)Nc2c(Cl)cc(C(F)(C(F)(F)F)C(F)(F)C(F)(F)F)cc2Br)c1OC (centres unmarked) [B166]
≥ 80%: all assays above

COc1c(NC(=O)c2ncc(Cl)cc2Cl)cccc1C(=O)Nc1c(Cl)cc(C(F)(C(F)(F)F)C(F)(F)C(F)(F)F)cc1Br (centres unmarked) [B185]
≥ 80%: all assays above

COc1c(NC(=O)c2cc(Cl)ccc2F)cccc1C(=O)Nc1c(Cl)cc(C(F)(C(F)(F)F)C(F)(F)F)cc1Cl [E8]
≥ 80%: all assays above

COc1c(NC(=O)c2ccc(F)cc2F)cccc1C(=O)Nc1c(C)cc(C(F)(C(F)(F)F)C(F)(F)C(F)(F)F)cc1C (centres unmarked) [F9]
≥ 80%: all assays above

COc1c(NC(=O)c2cc(Cl)ccc2F)cccc1C(=O)Nc1c(C)cc(C(F)(C(F)(F)F)C(F)(F)C(F)(F)F)cc1C (centres unmarked) [F12]
≥ 80%: Diabrotica balteata | Heliothis virescens | Spodoptera littoralis

COCc1cc(C(F)(C(F)(F)F)C(F)(F)C(F)(F)F)cc(Cl)c1NC(=O)c1cccc(NC(=O)c2c(F)cc(F)cc2F)c1OC (centres unmarked) [H2]
≥ 80%: Diabrotica balteata | Heliothis virescens | Plutella xylostella

COCc1cc(C(F)(C(F)(F)F)C(F)(F)C(F)(F)F)cc(Br)c1NC(=O)c1cccc(NC(=O)c2ccc(C#N)cc2C)c1OC (centres unmarked) [I1]
≥ 80%: Diabrotica balteata | Heliothis virescens | Plutella xylostella

CCc1cc(C(F)(C(F)(F)F)C(F)(F)F)cc(C)c1NC(=O)c1cccc(NC(=O)c2c(F)cc(F)cc2F)c1OC [J3]
≥ 80%: Diabrotica balteata | Heliothis virescens | Plutella xylostella

CCc1cc(C(F)(C(F)(F)F)C(F)(F)F)cc(C)c1NC(=O)c1cccc(NC(=O)c2ccc(C#N)cc2C)c1OC [J4]
≥ 80%: Diabrotica balteata | Heliothis virescens | Plutella xylostella
